According to US20100093748A1, “SUBSTITUTED PIPERIDINES HAVING PROTEIN KINASE INHIBITING ACTIVITY” (ASTEX THERAPEUTICS LIMITED, priority 2006, published 2010):
Where two headings read alike, the source gives them in different places.

Test system: phosphorylation of Serine-9 residue in Glycogen Synthase Kinase-3beta as surrogate marker of cellular PKB (Akt) activity
Assay: In vitro MDA-MB-468 human breast adenocarcinoma GSK-3 phosphorylation assay
Format: cell-based
Text: This assay determines the ability of test compounds to inhibit phosphorylation of Serine-9 residue in Glycogen Synthase Kinase-3beta (GSK-313) as a surrogate marker of cellular PKB (Akt) activity, as assessed using Acumen Explorer Fluorescent Plate-Reader technology. A MDA-MB-468 human breast adenocarcinoma cell line (LGC Promochem, Teddington, Middlesex, UK, Catalogue No. HTB-132) was routinely maintained in Dulbecco's modified Eagle's growth medium (DMEM; Invitrogen Limited, Paisley, UK Catalogue No. 11966-025) containing 10% heat-inactivated foetal calf serum (FCS; Sigma, Poole, Dorset, UK, Catalogue No. F0392) and 1% L-glutamine (Gibco, Catalogue No. 25030-024) at 37° C. with 5% CO2 up to a confluency of 70-90%.
For the phosphorylation assay, the cells were detached from the culture flask using Trypsin-EDTA (Invitrogen Limited, Catalogue No. 25300-062) and seeded into the wells of a black transparent-bottom Corning Costar Polystyrene 96 well plate (Fisher Scientific UK, Loughborough, Leicestershire, UK; Catalogue No. 3904 and DPS-130-020K) at a density of 5000 cells per well in 100 μl of complete growth media. The cells were incubated overnight at 37° C. with 5% CO2 to allow them to adhere.
On day 2, the cells were treated with test compounds and incubated for 2 hours at 37° C. with 5% CO2. Test compounds were prepared as 10mM stock solutions in DMSO and dosed directly to required concentration into test wells using non-contact (acoustic dispensing of multiple 2.5 nl droplets directly into assay wells) ECHO dosing technology (Labcyte Inc Sunnyvale, Calif., USA). Each plate contained control wells without test compound.
20 μl of fixing buffer (Phosphate Buffered Saline (PBS) containing 10% formaldehyde; Sigma; Catalogue No. F1635) was then added to each well to give a final well concentration 1.6%. Plates were then incubated for 30 minutes at room temperature prior to the fixative being removed. Each well was washed once with 250 μl of PBS and then 50 μl PBS added to each well. PBS was then aspirated and cells permeabilised and blocked by incubating each well with 50 μl of permeabilisation/blocking buffer (PBS containing 0.5% Tween 20 (Sigma; Catalogue No. P5927) and 5% Marvel Milk Powder (Andrews Pharmacy Ltd, Macclesfield, Cheshire, UK; Catalogue No. APC100199)) for 1 hour at room temperature prior to staining.
Following removal of Perm/Block buffer, 50 μl of primary anti-phospho-GSK-3β antibody (Cell Signalling Technology (New England Biolabs (Uk) Ltd.), Hitchin, Hertfordshire, UK; Catalogue No.9336 diluted 1:400 in Blocking buffer (PBS containing 5% Marvel and 0.05% Tween/Polysorbate 20) was added to each well and incubated overnight at 4° C.
Each well was washed three times in 250 μl of wash buffer (PBS containing 0.05% polysorbate 20), and cells incubated for 1 hour at room temperature with 50 μl of secondary fluorescently-labelled anti-rabbit Alexa Fluor 488 antibody (Molecular Probes, Invitrogen Limited, Catalogue No. A11008) diluted 1:750 in blocking buffer. Plates were washed three times in 250 μl of wash buffer and stored containing 50 μl of PBS at 4° C. until required.
Plates were analysed using an Acumen Explorer Plate-reader to quantify level of fluorescent signal that represents quantity of phosphorylated-GSK-313.
IC50 calculation—IC50 is the concentration of compound required to give 50% effect over the range of activity affected by the compound, between maximum (no compound) and minimum (excess level of compound) response control data. IC50 values were determined by fitting background corrected, dose response assay data to a 4 parameter logistic curve fit equation model with the minimum response set to zero. This was done using an in-house developed algorithm within the Origin graphing software package (OriginLab Corporation, Northampton, Mass., USA). […]

[1] = MDA-MB-468 cells, 2 hours compound incubation, mean IC50, read-out: Cell pGSK3b IC50
[2] = MDA-MB-468, 2 h, read-out: Cell pGSK3b IC50

IC50 [1] [nM] | Compound | IC50 [2] [nM]
160 | NC1(c2nc3c(O)cccc3[nH]2)CCN(c2ncnc3[nH]ccc23)CC1 [Example 11, 2-[4-Amino-1-(7H-pyrrolo[2,3-d]pyrimidin-4-yl)-piperidin-4-yl]-1H-benzoimidazol-4-ol] | –
660 | NC1(c2nc3ccc(Cl)cc3[nH]2)CCN(c2ncnc3[nH]ccc23)CC1 [Example 13, 4-(6-chloro-1H-benzoimidazol-2-yl)-1-(7H-pyrrolo[2,3-d]pyrimidin-4-yl)-piperidin-4-ylamine] | –
250 | NC1(c2nc3ccc(Cl)cc3[nH]2)CCN(c2ncnc3[nH]cnc23)CC1 [Example 21, 4-(6-chloro-1H-benzoimidazol-2-yl)-1-(9H-purin-6-yl)-piperidin-4-ylamine] | –
770 | NC1(c2nc3ccc(Cl)cc3[nH]2)CCN(c2ncnc3[nH]ncc23)CC1 [Example 22, 4-(6-chloro-1H-benzoimidazol-2-yl)-1-(1H-pyrazolo[3,4-d]pyrimidin-4-yl)-piperidin-4-ylamine] | –
86 | NCC1(c2nc3ccccc3[nH]2)CCN(c2ncnc3[nH]ccc23)CC1 [Example 34D, C-[4-(1H-Benzoimidazol-2-yl)-1-(7H-pyrrolo[2,3-d]pyrimidin-4-yl)-piperidin-4-yl]-methylamine] | –
< 31 | NC1(c2nc3c(-c4ccccc4)cccc3[nH]2)CCN(c2ncnc3[nH]ccc23)CC1 [Example 42, 4-(4-Phenyl-1H-benzoimidazol-2-yl)-1-(7H-pyrrolo[2,3-d]pyrimidin-4-yl)-piperidin-ylamine] | –
120 | NCC1(c2nc3ccccc3[nH]2)CCN(c2ncnc3[nH]cnc23)CC1 [Example 44, (4-(1H-benzo[d]imidazol-2-yl)-1-(9H-purin-6-yl)piperidin-4-yl)methanamine] | –
87 | NCC1(c2nc3ccccc3[nH]2)CCN(c2ncnc3[nH]cc(Cl)c23)CC1 [Example 45, (4-(1H-benzo[d]imidazol-2-yl)-1-(5-chloro-7H-pyrrolo[2,3-d]pyrimidin-4-yl)piperidin-4-yl)methanamine] | –
97 | NCC1(c2nc3ccccc3[nH]2)CCN(c2ncnc3[nH]nc(Br)c23)CC1 [Example 46, (4-(1H-benzo[d]imidazol-2-yl)-1-(3-bromo-1H-pyrazolo[3,4-d]pyrimidin-4-yl)piperidin-4-yl)methanamine] | –
170 | Cc1c[nH]c2ncnc(N3CCC(CN)(c4nc5ccccc5[nH]4)CC3)c12 [Example 47, (4-(1H-benzo[d]imidazol-2-yl)-1-(5-methyl-7H-pyrrolo[2,3-d]pyrimidin-4-yl)piperidin-4-yl)methanamine] | –
210 | NCC1(c2nc3ccccc3[nH]2)CCN(c2ncnc3[nH]cc(Br)c23)CC1 [Example 48, (4-(1H-benzo[d]imidazol-2-yl)-1-(5-bromo-7H-pyrrolo[2,3-d]pyrimidin-4-yl)-piperidin-4-yl)methanamine] | –
480 | NC1(c2nc3ccc(C(F)(F)F)cc3[nH]2)CCN(c2ncnc3[nH]ccc23)CC1 [Example 50, 1-(7H-Pyrrolo[2,3-d]pyrimidin-4-yl)-4-[6-(trifluoromethyl)-1H-benzimidazol-2-yl]piperidin-4-amine] | –
800 | Cc1ccc2nc(C3(N)CCN(c4ncnc5[nH]ccc45)CC3)[nH]c2c1C [Example 51, 4-(6,7-dimethyl-1H-benzimidazol-2-yl)-1-(7H-pyrrolo[2,3-d]pyrimidin-4-yl)piperidin-4-amine] | –
1300 | NC1(c2nc3cc(F)c(Cl)cc3[nH]2)CCN(c2ncnc3[nH]ccc23)CC1 [Example 52, 4-(6-chloro-5-fluoro-1H-benzimidazol-2-yl)-1-(7H-pyrrolo[2,3-d]pyrimidin-4-yl)piperidin-4-amine] | –
1800 | NC1(c2nc3cc(Cl)c(Cl)cc3[nH]2)CCN(c2ncnc3[nH]ccc23)CC1 [Example 53, 4-(5,6-Dichloro-1H-benzoimidazol-2-yl)-1-(7H-pyrrolo[2,3-d]pyrimidin-4-yl)-piperidin-4-ylamine] | –
> 2600 | Cn1c(C2(N)CCN(c3ncnc4[nH]ccc34)CC2)nc2ccccc21 [Example 54, 4-(1-methylbenzimidazol-2-yl)-1-(7H-pyrrolo[2,3-d]pyrimidin-4-yl)piperidin-4-amine] | –
2900 | NC1(c2nc3cccnc3[nH]2)CCN(c2ncnc3[nH]ccc23)CC1 [Example 55, 4-(3H-imidazo[5,4-b]pyridin-2-yl)-1-(7H-pyrrolo[2,3-d]pyrimidin-4-yl)piperidin-4-amine] | –
5500 | NC1(c2nc3cc(-n4ccnc4)ccc3[nH]2)CCN(c2ncnc3[nH]ccc23)CC1 [Example 56, 4-(5-imidazol-1-yl-1H-benzimidazol-2-yl)-1-(7H-pyrrolo[2,3-d]pyrimidin-4-yl)piperidin-4-amine] | –
> 2100 | Cc1cc2[nH]c(C3(N)CCN(c4ncnc5[nH]ccc45)CC3)nc2cc1Cl [Example 57, 4-(5-chloro-6-methyl-1H-benzo[d]imidazol-2-yl)-1-(7H-pyrrolo[2,3-d]pyrimidin-4-yl)piperidin-4-amine] | –
1400 | Cc1cc(Cl)cc2nc(C3(N)CCN(c4ncnc5[nH]ccc45)CC3)[nH]c12 [Example 58, 4-(5-Chloro-7-methyl-1H-benzo[d]imidazol-2-yl)-1-(7H-pyrrolo[2,3-d]pyrimidin-4-yl)piperidin-4-amine] | –
1900 | CCN(CC)S(=O)(=O)c1ccc2[nH]c(C3(N)CCN(c4ncnc5[nH]ccc45)CC3)nc2c1 [Example 59, 2-(4-amino-1-(7H-pyrrolo[2,3-d]pyrimidin-4-yl)piperidin-4-yl)-N,N-diethyl-1H-benzo[d]imidazole-5-sulfonamide] | –
8600 | CN1CCN(c2ccc3[nH]c(C4(N)CCN(c5ncnc6[nH]ccc56)CC4)nc3c2)CC1 [Example 60, 4-(5-(4-methylpiperazin-1-yl)-1H-benzo[d]imidazol-2-yl)-1-(7H-pyrrlo[2,3-d]pyrimidin-4-yl)piperidin-4-amine] | –
620 | NC1(c2nc3cc(OC(F)(F)F)ccc3[nH]2)CCN(c2ncnc3[nH]ccc23)CC1 [Example 61, 1-(7H-Pyrrolo[2,3-d]pyrimidin-4-yl)-4-(5-(trifluoromethoxy)-1H-benzo[d]imidazol-2-yl)piperidin-4-amine] | –
580 | CC(C)c1ccc2[nH]c(C3(N)CCN(c4ncnc5[nH]ccc45)CC3)nc2c1 [Example 62, 4(5-isopropyl-1H-benzo[d]imidazol-2-yl)-1-(7H-pyrrolo[2,3-d]pyrimidin-4-yl)piperidin-4-amine] | –
– | COc1ccc(Oc2ccc3[nH]c(C4(N)CCN(c5ncnc6[nH]cnc56)CC4)nc3c2)cc1 [Example 63, 4-(5-(4-methoxyphenoxy)-1H-benzo[d]imidazol-2-yl)-1-(9H-purin-6-yl)piperidin-4-amine] | > 960
380 | COc1ccc(Oc2ccc3[nH]c(C4(N)CCN(c5ncnc6[nH]ccc56)CC4)nc3c2)cc1 [Example 64, 4-(5-(4-Methoxyphenoxy)-1H-benzo[d]imidazol-2-yl)-1-(7H-pyrrolo[2,3-d]pyrimidin-4-yl)piperidin-4-amine] | –
– | NC1(c2nc3cc(SC(F)(F)F)ccc3[nH]2)CCN(c2ncnc3[nH]ccc23)CC1 [Example 65, 1-(7H-Pyrrolo[2,3-d]pyrimidin-4-yl)-4-(5-(trifluoromethylthio)-1H-benzo[d]imidazol-2-yl)piperidin-4-amine] | 420
110 | NCC1(c2nc3cc(Cl)ccc3[nH]2)CCN(c2ncnc3[nH]cnc23)CC1 [Example 66G, (4-(5-chloro-1H-benzo[d]imidazol-2-yl)-1-(9H-purin-6-yl)piperidin-4-yl)methanamine] | –
